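Growth conditions: 96-well plates. Treatment: test compound, 48 hours, 5 concentrations. Analysis: linear interpolation between bracketing concentrations; unreached endpoints set to highest concentration. The concentration for 50% growth inhibition is given as GI50. TGI marks complete inhibition of growth.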 Some results are limits rather than exact numbers.

For one assay, the system named is P388/ADR leukemia. The assay is described as follows: NCI tumour cell line growth inhibition, 48 h.
For the next assay, the system named is SN12K1 renal. Briefly: NCI tumour cell line growth inhibition, 48 h.

`CN(c1ccccc1)c1c(-c2ccccc2)c(=O)oc2c1ccc1occc12`: the TGI in the assay on P388/ADR leukemia and in the assay on SN12K1 renal was greater than 100 µM in each case.
For `COc1cccc2c1C(=O)c1c(O)c3c(c(O)c1C2=O)C[C@](O)(C(=O)CO)CC3OC1CC(N)C(OC2CCCCO2)C(C)O1` (stereo not given in full), the results for the TGI in the assay on P388/ADR leukemia and with SN12K1 renal were greater than 100 µM and 0.879 µM, respectively.
As to `O.O=[Se](=O)(O)O.[NH-]C1CCCCC1[NH-].[Pt+2]` (stereo not given), in the assay on P388/ADR leukemia, the GI50 is 7.22 µM and the TGI was greater than 100 µM. In addition, in the assay on SN12K1 renal, the GI50 was greater than 30.4 µM and the TGI is greater than 100 µM.
Turning to `C=C1C(=O)OC2C1CC1OC2C(C)CCC/C(C)=C\CCC1(C)O` (stereo not given), the TGI with P388/ADR leukemia was 58.2 µM; in the assay with SN12K1 renal, 40.2 µM.

The values are drawn from PubChem BioAssay (NCI).
